# Assay results from ChEMBL document CHEMBL4007493 (J Med Chem, 2017).
# Assays:
# D(2) dopamine receptor [1] = biological target: T1, D(2) dopamine receptor (Homo sapiens, UniProt P14416); assay: Antagonist activity at renilla luciferase-tagged human dopamine D2 receptor expressed in HEK293 cells coexpressing mVenus-fused beta-arrestin 2 assessed as reduction in quinpirole-mediated beta-arrestin 2 recruitment preincubated for 15 mins followed by quinpirole addition measured for 1 sec by BRET assay relative to quinpirole; format: cell-based
# T1 sequence (P14416 whole entry, the tested form may be a part): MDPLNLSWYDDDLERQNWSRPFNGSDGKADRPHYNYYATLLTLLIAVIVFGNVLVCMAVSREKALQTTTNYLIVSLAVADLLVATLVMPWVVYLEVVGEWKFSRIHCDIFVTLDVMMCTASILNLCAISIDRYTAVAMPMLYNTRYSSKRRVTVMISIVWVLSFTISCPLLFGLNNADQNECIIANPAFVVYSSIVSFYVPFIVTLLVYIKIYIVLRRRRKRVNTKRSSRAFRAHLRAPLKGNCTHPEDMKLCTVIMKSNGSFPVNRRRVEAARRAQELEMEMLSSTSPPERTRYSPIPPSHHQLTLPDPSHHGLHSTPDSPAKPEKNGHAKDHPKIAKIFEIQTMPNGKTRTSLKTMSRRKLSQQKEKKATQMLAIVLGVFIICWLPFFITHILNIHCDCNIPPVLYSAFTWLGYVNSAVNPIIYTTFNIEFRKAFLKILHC
# D(3) dopamine receptor [2] = biological target: T2, D(3) dopamine receptor (Homo sapiens, UniProt P35462); assay: biochemical
# T2 sequence (P35462 whole entry): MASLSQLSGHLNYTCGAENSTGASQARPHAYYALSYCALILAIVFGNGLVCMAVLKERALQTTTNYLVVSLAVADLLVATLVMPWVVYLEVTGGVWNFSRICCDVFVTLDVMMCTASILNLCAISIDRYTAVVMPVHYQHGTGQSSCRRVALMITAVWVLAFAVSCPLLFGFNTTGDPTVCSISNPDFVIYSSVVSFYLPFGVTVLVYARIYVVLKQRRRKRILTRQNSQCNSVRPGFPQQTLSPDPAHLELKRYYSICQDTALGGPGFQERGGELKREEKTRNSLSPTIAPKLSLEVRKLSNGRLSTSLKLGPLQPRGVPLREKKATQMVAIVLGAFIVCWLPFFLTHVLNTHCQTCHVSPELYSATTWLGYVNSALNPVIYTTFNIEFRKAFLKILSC
# D(2) dopamine receptor [3] = biological target: T1, D(2) dopamine receptor; assay: biochemical
# D(2) dopamine receptor [4] = biological target: T1, D(2) dopamine receptor; assay: Antagonist activity at human dopamine D2 receptor expressed in HEK293 cells coexpressing renilla luciferase-fused GalphaoA/GFP10-fused Ggamma2 assessed as inhibition of quinpirole-induced GalphaoA activation by BRET assay relative to quinpirole; format: cell-based
# D(2) dopamine receptor [5] = biological target: T1, D(2) dopamine receptor; assay: Antagonist activity at human dopamine D2 receptor expressed in forskolin stimulated-HEK293 cells coexpressing renilla luciferase-fused Galphai1/GFP10-fused Ggamma2 assessed as inhibition of quinpirole-induced Galphai1 activation by BRET assay relative to quinpirole; format: cell-based
# D(2) dopamine receptor [6] = biological target: T1, D(2) dopamine receptor; assay: Antagonist activity at human dopamine D2 receptor expressed in HEK293 cells assessed as reduction in quinpirole-mediated cAMP inhibition preincubated for 15 mins followed by quinpirole addition measured for 1 sec by BRET assay relative to quinpirole; format: functional, cell-based
# D(2) dopamine receptor [7] = biological target: T1, D(2) dopamine receptor
# D(2) dopamine receptor [8] = biological target: T1, D(2) dopamine receptor; remark: listed apart in the source
# D(2) dopamine receptor [9] = biological target: T1, D(2) dopamine receptor; remark: listed apart in the source
# D(2) dopamine receptor [10] = biological target: T1, D(2) dopamine receptor; remark: listed apart in the source
# D(2) dopamine receptor [11] = biological target: T1, D(2) dopamine receptor; remark: listed apart in the source
# D(2) dopamine receptor [12] = biological target: T1, D(2) dopamine receptor; remark: listed apart in the source
# D(2) dopamine receptor [13] = biological target: T1, D(2) dopamine receptor; remark: listed apart in the source
# D(3) dopamine receptor [14] = biological target: T2, D(3) dopamine receptor
Imax (D(2) dopamine receptor [1]),Ki (D(3) dopamine receptor [2]),Ki (D(2) dopamine receptor [3]),Imax (D(2) dopamine receptor [4]),Imax (D(2) dopamine receptor [5]),Imax (D(2) dopamine receptor [6]),EC50 (D(2) dopamine receptor [7]),EC50 (D(2) dopamine receptor [8]),EC50 (D(2) dopamine receptor [9]),EC50 (D(2) dopamine receptor [10]),IC50 (D(2) dopamine receptor [11]),IC50 (D(2) dopamine receptor [13]),SMILES,IC50 (D(2) dopamine receptor [12]),Ki (D(3) dopamine receptor [14])
-10 to 0%,0.0777 µM,0.0387 µM,-67%,-59%,-10 to 0%,,,,,,,CN[C@@H]1Cc2cccc3c2n(c(=O)n3CCCCCCCCOCCCCc2ccccc2)C1,,
,0.139 µM,0.0606 µM,,,,,,,,,,CN[C@@H]1Cc2cccc3c2n(c(=O)n3CCCCCCOCCCCc2ccccc2)C1,,
-47%,0.558 µM,0.0347 µM,-83%,-72%,-10 to 0%,0.678 µM,0.139 µM,0.279 µM,0.0887 µM,,,CN[C@@H]1Cc2cccc3c2n(c(=O)n3CCOCCOCCOCCCCc2ccccc2)C1,,
-41%,,,-27%,-64%,-10 to 0%,0.185 µM,0.27 µM,0.0538 µM,0.0569 µM,3.65 µM,2.01 µM,CCCN(CCC)[C@@H]1Cc2cccc3c2n(c(=O)n3CCCCNC(=O)c2cc3ccccc3[nH]2)C1,0.713 µM,
-13%,0.227 µM,0.111 µM,-36%,-87%,,1.85 µM,2.47 µM,1.23 µM,0.351 µM,,,CN[C@@H]1Cc2cccc3c2n(c(=O)n3CCOCCOCCCCc2ccccc2)C1,,
,0.0942 µM,0.0372 µM,,,,0.194 µM,0.197 µM,0.0256 µM,0.0246 µM,,,CCCN[C@@H]1Cc2cccc3c2n(c(=O)n3CCCCOCCCCc2ccccc2)C1,,
-10 to 0%,0.113 µM,0.0238 µM,-33%,-80%,-10 to 0%,,2.53 µM,0.71 µM,,4.49 µM,0.802 µM,CN[C@@H]1Cc2cccc3c2n(c(=O)n3CCCCCCCCCCOCCCCc2ccccc2)C1,,
-67%,0.64 µM,0.306 µM,-18%,-66%,-10 to 0%,3.98 µM,1.87 µM,1 µM,1.06 µM,,,CN[C@@H]1Cc2cccc3c2n(c(=O)n3CCOCCOCCOCCOc2ccc3c(c2)NC(=O)CC3)C1,,
-13%,0.598 µM,0.284 µM,-71%,-141%,-10 to 0%,0.57 µM,,1.46 µM,0.667 µM,,,CN[C@@H]1Cc2cccc3c2n(c(=O)n3CCCCCCCCCCCCOc2ccc3c(c2)NC(=O)CC3)C1,,
,0.382 µM,0.0401 µM,,,,0.189 µM,0.074 µM,0.0031 µM,0.158 µM,,,CN(CCCCOc1ccc2c(c1)NC(=O)CC2)[C@@H]1Cc2cccc3[nH]c(=O)n(c23)C1,,
,0.377 µM,0.121 µM,,,,,,,,,,CN[C@@H]1Cc2cccc3c2n(c(=O)n3CCCCOCCCCc2ccccc2)C1,,
,0.0806 µM,0.0548 µM,,,,,,,,,,CCCN[C@@H]1Cc2cccc3c2n(c(=O)n3CCCCCCOCCCCc2ccccc2)C1,,
,0.141 µM,0.124 µM,,,,,,,,,,CN[C@@H]1Cc2cccc3c2n(c(=O)n3CCCCCCCCCCCCOCCCCc2ccccc2)C1,,
,0.115 µM,0.0185 µM,,,,,,,,,,CCCN[C@@H]1Cc2cccc3c2n(c(=O)n3CCCCNC(=O)c2cc3ccccc3[nH]2)C1,,
,0.00245 µM,0.0218 µM,,,,,,,,,,CCCn1c(=O)n2c3c(cccc31)C[C@@H](N(C)CCCCNC(=O)c1cc3ccccc3[nH]1)C2,,
-27%,1.35 µM,0.338 µM,-64%,-34%,-10 to 0%,0.713 µM,1.5 µM,0.255 µM,0.105 µM,4.1 µM,,CN[C@@H]1Cc2cccc3c2n(c(=O)n3CCCCOc2ccc3c(c2)NC(=O)CC3)C1,,
-28%,,,-40%,-31%,-10 to 0%,1.15 µM,0.944 µM,0.338 µM,0.458 µM,2.97 µM,4.53 µM,CCCN(CCCCNC(=O)c1cc2ccccc2[nH]1)[C@@H]1Cc2cccc3c2n(c(=O)n3CCC)C1,,
,,,,,,,,,,,,CN[C@@H]1Cc2cccc3[nH]c(=O)n(c23)C1 [SUMANIROLE],,0.573 µM

SMILES,Imax (D(2) dopamine receptor [1]),Ki (D(3) dopamine receptor [2]),Ki (D(2) dopamine receptor [3]),Imax (D(2) dopamine receptor [4]),Imax (D(2) dopamine receptor [5]),Imax (D(2) dopamine receptor [6]),EC50 (D(2) dopamine receptor [7]),EC50 (D(2) dopamine receptor [8]),EC50 (D(2) dopamine receptor [9]),EC50 (D(2) dopamine receptor [10]),IC50 (D(2) dopamine receptor [11]),IC50 (D(2) dopamine receptor [13]),IC50 (D(2) dopamine receptor [12]),Ki (D(3) dopamine receptor [14])
CCCN(CCC)[C@@H]1Cc2cccc3c2n(c(=O)n3CCC)C1,-23%,,,-24%,-45%,,0.0168 µM,0.0205 µM,0.001 µM,0.0009 µM,0.931 µM,0.0989 µM,0.158 µM,
